# Patent US9545411B2, “Methods and compositions for treating progesterone-dependent conditions” (REPROS THERAPEUTICS INC., priority 2012, dated 2017)
# How the values were obtained:
# [1] = Pharmacokinetic studies in clinical trial subjects after oral CDB-4124; assay type: in vivo, human; conditions: for maximum concentration for the 12.5 mg dose as percentage of the 50 mg dose: oral CDB-4124
# Protocol: (§1) The maximum concentrations of CDB-4124 and its mono-demethylated metabolite (CDB-4453) for the 12.5 mg dose were 25% of the 50 mg dose. All liver toxicities resolved in those women that returned for safety follow-ups, including those subjects that developed liver-associated serious adverse effects (SAEs).
# Pharmacokinetic studies performed on participating subjects detected a high Cmax and a Tmax at 1-2 hours following administration. Large quantities of the monodemethylated metabolite of CDB-4124 were also detected, clearly indicating first pass metabolism of the antiprogestin. […] Metabolism of CDB-4124 by the liver provides the opportunity for liver damage and greatly reduces the concentration of the antiprogestin before it reaches the systemic circulation. Thus, alternative routes of administration of antiprogestins that avoid first pass metabolism such as, without limitation, intravenous, intramuscular, and sublingual, should allow antiprogestins to be absorbed directly into the systemic circulation and thereby provide a method for treating progesterone-dependent conditions while avoiding liver toxicity. Administration routes which avoid first pass metabolism may also require less drug per dose to achieve the same therapeutic benefit relative to oral administration.
# [2] = Oral versus vaginal pharmacokinetics in beagles (25 mg); assay type: in vivo; conditions: for metabolism after oral administration: oral micronized powder; for metabolism after vaginal administration / peak plasma concentration (Cmax): vaginal suppository
# Protocol: FIG. 1 illustrates a comparison of the Cmax (peak serum concentration) and area under the curve (AUC) following oral and vaginal administration of CDB-4124 or CDB-4453 at a 25 mg dose in beagles.
# Beagles were administered 25 mg of CDB-4124 or CDB-4453 (the monodemethylated metabolite of CDB-4124) formulated as either a micronized powder or a vaginal suppository.
# [3] = Clinical trials of daily oral Proellex (CDB-4124): liver toxicity / liver enzymes; assay type: in vivo, human; conditions: for subjects with liver enzyme elevations reported as SAEs: of seven SAEs
# Protocol: as §1
# To date, over 600 patients, including women with confirmed cases of endometriosis or uterine fibroids, have participated in double blind and open label clinical trials in which patients were administered daily oral capsules containing doses of 12.5 mg, 25 mg or 50 mg CDB-4124 (Proellex) for over one month. Of these patients, about 500 received Proellex and about 130 received a placebo. Of the patients receiving Proellex, about 190 received a dose of 50 mg CDB-4124 per day, about 260 received a dose of 25 mg CDB-4124 per day and about 55 received a dose of 12.5 mg per day.
# Liver enzymes were frequently monitored in participating subjects. The liver enzyme level at which the clinical trials would be discontinued was set at an increase in liver aminotransferases greater than, or equal to three times the Upper Limit of Normal (≧3×ULN).
# Of the nine subjects with a confirmed increase in liver enzymes ≧3×ULN, seven were severe enough elevations to be reported to the FDA as SAEs. One of these seven subjects had been receiving a dose of 25 mg CDB-4124 per day; the remaining six subjects had been receiving a dose of 50 mg CDB-4124 per day. Liver enzymes ≧3×ULN persisted in five of the nine subjects with a confirmed increase in liver enzymes ≧3×ULN. These five subjects had previously been dosed with the 50 mg dose. One of these subjects is receiving oral medication for treatment of their liver condition. Clinical trials involving CDB-4124 at all doses were voluntarily suspended as a result of these SAEs and were subsequently placed on clinical hold by the United States Food and Drug Administration for safety reasons.
# [4] = test system: primary cultures of human and animal hepatocytes; assay: Metabolism in primary cultures of hepatocytes; assay type: in vitro ADME; conditions: primary hepatocyte cultures
# [5] = test system: DMBA-induced breast tumors; assay: DMBA-induced breast tumor model, subcutaneous injection; assay type: in vivo, rodents
# Protocol: Pre-clinical studies were performed on rodents with breast tumors induced by 7,12-Dimethylbenz(a)anthracene (DMBA).
# [6] = Cmax after vaginal administration in beagles extrapolated to humans; assay type: in vivo; conditions: for predicted Cmax for vaginal administration as percentage of the same oral dose: humans, extrapolated from beagles
# Protocol: FIG. 2 illustrates the actual Cmax observed for Proellex (CDB-4124) and its monodemethylated metabolite CDB-4453, following oral administration of CDB-4124 at 12.5 mg, 25 mg and 50 mg doses as well as the projected Cmax for 3 mg, 6 mg and 9 mg doses. FIG. 2 also illustrates the actual Cmax observed for Proellex (CDB-4124) and its monodemethylated metabolite CDB-4453, following vaginal administration of CDB-4124 at 12.5 mg, 25 mg and 50 mg doses.
# The maximum circulating concentrations (Cmax) of CDB-4124 obtained following vaginal administration to beagles were extrapolated to humans for the 12.5 mg, 25 mg and 50 mg doses actually administered during the Phase III clinical studies.
# For example, equivalent antiprogestational activity at the uterus is observed for a 50 mg oral dose of CDB-4124 and a 12.5 mg vaginal dose; however, the Cmax observed with a 12.5 mg vaginal dose is only 2% that observed with a 50 mg oral dose. […] Because a high concentration of the drug in the systemic circulation (and associated first pass metabolism of the drug) is not reached by local administration, avoidance of the severe liver toxicity observed in a small percentage of subjects following oral administration of CDB-4124 in previous Phase III clinical studies at doses of 25 and 50 mg is a surprising advantage of administering the drug locally. Similar advantages should inure to local administration of other antiprogestins.
# [7] = test system: progesterone-induced endometrial proliferation; assay: Anti-Clauberg study, subcutaneous versus oral; assay type: in vivo, rabbits
# Source text: FIG. 3 illustrates a comparison of the inhibition of progesterone-induced endometrial proliferation in estradiol-primed immature rabbits following subcutaneous injection and oral administration of CDB-4124.
# To determine whether the low circulating levels of CDB-4124 when administered locally could have any impact predictive of efficacy, an anti-Clauberg study was run in which immature estradiol-primed rabbits were coadministered progesterone and various doses of CDB-4124 by either subcutaneous or oral administration. At least 3 different highly trained individuals evaluated the rabbit uterus for glandular growth, for complexity and overall progesterone-induced “development”. The inhibition (by percentage) of progesterone-induced endometrial proliferation at each dose was assayed. […] However, maximal inhibition required a ˜8-fold increase in dosage when administered orally (i.e. 8 mg/kg). Importantly 8 mg/kg corresponds closely to the 50 mg/day dose of CDB-4124 administered to the female subjects described in Example 3.
# [8] = test system: progesterone-induced endometrial proliferation; assay: Anti-Clauberg study, vaginal versus oral (McPhail index); assay type: in vivo, rabbits
# Protocol: FIG. 4 compares the antiprogestational effects of three doses of CDB-4124 when delivered orally versus when delivered to the vaginal mucosa of estradiol-primed immature rabbits in the presence of progesterone, as measured by a decrease in the McPhail index. Treatment with progesterone alone (vehicle control) provided a baseline measurement of progestational activity.
# Another anti-Clauberg study was run in which immature estradiol-primed rabbits were administered progesterone alone (vehicle control) or were coadministered progesterone and three doses of CDB-4124 by either vaginal or oral administration. The inhibition of progesterone-induced endometrial proliferation at each dose was assayed. FIG. 3 illustrates the decrease in the McPhail index following increasing doses of CDB-4124 administered by either route. Maximal inhibition (i.e. a decrease in the McPhail index to 1.5) occurred at 0.2 mg/kg CDB-4124 when administered vaginally, compared to 0.8 mg/kg when administered orally.
# [9] = test system: uterine fibroids; assay: Single blind study of vaginal CDB-4124 in females with uterine fibroids; assay type: in vivo, human; conditions: vaginal 12 mg daily
# Protocol: Seven human females with uterine fibroids have completed 4 months of treatment as part of a single blind study. These females were vaginally administered a daily dose of 12 mg CDB-4124 for a period of four months, with dosing initiated during the luteal phase of the females' menstrual cycles. At the end of the four month treatment period, all seven females stopped menstruating and all reported a Pictural Blood Loss Assessment Chart (PBAC) score of 0 (p=0.002). A statistically significant and highly clinically meaningful reduction in Uterine Fibroid Symptom Quality of Life Survey (UFSQOL) scores was also observed. The mean UFSQOL score at baseline was 43.8 and at the end of the four month treatment period the mean score was 1.33 (p=0.001). […] As a reference, women with fibroids typically score 40 or higher, whereas women without fibroids report scores of approximately 20.
# Change in fibroid volume at the end of the four month treatment period determined by magnetic resonance imagining (MRI) was assessed and a statistically significant (chi square analysis) median reduction of total fibroid volume of 36% was observed.
# [10] = Oral study, 1-12 mg CDB-4124 for 10 weeks; assay type: in vivo
# Protocol: (§2) In an oral study, doses of 1, 3, 6, 9 and 12 mg of CDB-4124 were administered for a period of 10 weeks. […] Cessation of menses directly correlated to efficacy of an oral dose in both uterine fibroids and endometriosis.
# [11] = Pharmacokinetic analysis of vaginal administration of 12 mg CDB-4124; assay type: in vivo, human
# Protocol: as §2
# Thus, the onset of amenorrhea is delayed when the drug is administered vaginally, necessitating that the drug be vaginally administered during subsequent menstruations, which tends to reduce absorption of the drug and is unpleasant and technically challenging for the patient. The methods of the present invention provide a solution to this problem by providing a brief period of oral administration, preceding and overlapping vaginal administration, which expedites the onset of amenorrhea while retaining the benefits of vaginal administration.
# [12] = test system: hypothalamic pituitary axis (HPA); assay: Low-dose oral CDB-4124: effect on ovulation; assay type: in vivo; conditions: about 3-25 mg
# Source text: Contemporaneous systemic and local administration of antiprogestins to treat hormonally responsive breast cancer (i.e. the breast tumor contains estrogen and/or progesterone receptor) has advantages as well.
smiles,measurement,setting,value
"CNc1ccc([C@H]2C[C@@]3(C)[C@@H](CC[C@]3(OC(C)=O)C(=O)COC)[C@@H]3CCC4=CC(=O)CCC4=C32)cc1 [CDB-4453, 21-methoxy-17α-acetoxy-11β-(4-N-methylaminophenyl)-19-norpregna-4,9-diene-3,20-dione]",maximum concentration for the 12.5 mg dose as percentage of the 50 mg dose,[1],25%
same,"systemic exposure (AUC), vaginal vs. oral",[2],much lower when administered locally
same,metabolism after oral administration,[2],rapidly metabolized
same,metabolism after vaginal administration,[2],metabolized slowly
same,peak plasma concentration (Cmax),[2],relatively low
"COCC(=O)[C@@]1(OC(C)=O)CC[C@H]2[C@@H]3CCC4=CC(=O)CCC4=C3[C@@H](c3ccc(N(C)C)cc3)C[C@@]21C [CDB-4124, 21-methoxy-17α-acetoxy-11β-(4 N, N-dimethylaminophenyl)-19-norpregna-4,9-diene-3,20-dione]",adverse liver toxicity signals,[3]; 12.5 mg,no adverse liver toxicity signals different from placebo
same,subjects with liver enzyme elevations reported as SAEs,[3]; 25 mg per day,One
same,frequency and intensity of liver effects relative to 50 mg/day,[3]; 25 mg/day,significantly lower in frequency and intensity
same,subjects in whom liver enzymes ≧3×ULN persisted,"[3]; 50 mg dose, of nine confirmed",five
same,subjects with liver enzyme elevations reported as SAEs,[3]; 50 mg per day,six
same,women exhibiting severe liver toxicity,[3]; 50 mg/day,3-4%
same,subjects with confirmed increase in liver enzymes ≧3×ULN,"[3]; all doses (12.5, 25, 50 mg/day), confirmed by repeat test in 48 hours",nine
same,Tmax,[1]; following oral administration,1 to 2 h
same,maximum concentration for the 12.5 mg dose as percentage of the 50 mg dose,[1],25%
same,formation of mono-demethylated metabolite,[4],rapidly produce the mono-demethylated metabolite
same,effect on quantity and size of DMBA-induced breast tumors,[5],effective in reducing the quantity and size of DMBA-induced breast tumors
same,"systemic exposure (AUC), vaginal vs. oral",[2],much lower when administered locally
same,metabolism after oral administration,[2],rapidly metabolized
same,metabolism after vaginal administration,[2],metabolized slowly
same,peak plasma concentration (Cmax),[2],relatively low
same,predicted Cmax for vaginal administration as percentage of the same oral dose,[6]; 12.5 mg dose,approximately 6.5%
same,predicted Cmax for vaginal administration as percentage of the same oral dose,[6]; 50 mg dose,approximately 2%
same,Cmax with a 12.5 mg vaginal dose as percentage of a 50 mg oral dose,"[6]; in vivo, po",2%
same,dose giving maximal inhibition of progesterone-induced endometrial proliferation,[7]; oral,8 mg/kg
same,"increase in dosage required for maximal inhibition, oral vs. subcutaneous","[7]; rabbit, in vivo",~8 fold
same,dose giving maximal inhibition of progesterone-induced endometrial proliferation,[7]; subcutaneous,less than 1 mg/kg
same,McPhail index at maximal inhibition,[8]; 0.2 mg/kg vaginal or 0.8 mg/kg oral,1.5
same,dose giving maximal inhibition (decrease in McPhail index),[8]; oral,0.8 mg/kg
same,antiprogestational activity of vaginal delivery relative to the same oral dose,"[8]; rabbit, in vivo, po",four
same,dose giving maximal inhibition (decrease in McPhail index),[8]; vaginal,0.2 mg/kg
same,median reduction of total fibroid volume (MRI),[9]; end of four months,36%
same,Pictural Blood Loss Assessment Chart (PBAC) score,"[9]; end of four months, p=0.002",0
same,females who stopped menstruating,"[9]; end of four months, seven females",seven
same,mean Uterine Fibroid Symptom Quality of Life Survey (UFSQOL) score,"[9]; end of four months, baseline 43.8, p=0.001",1.33
same,females no longer experiencing any fibroid related symptoms,"[9]; four months, of seven",six
same,lowest dose inducing reliable cessation of menses,[10]; oral,3 mg
same,tolerability,"[10]; oral 1, 3, 6, 9 and 12 mg",well tolerated
same,maximum exposure (Cmax) relative to a 50 mg oral dose,[11]; vaginal 12 mg,about 1/100
same,systemic exposure (AUC) relative to an equivalent oral dose,[11]; vaginal 12 mg,about ⅙
same,"build-up of drug concentration, vaginal relative to oral",[11]; vaginal administration,build slowly
same,suppression of ovulation,[12],partially but not completely suppress ovulation
